Results: patent publication US20140220477A1, “Polymers, substrates, methods for making such, and devices comprising the same” (Avertica, Inc., priority 2013, published 2014)
Structures can show the parent of a compound that is named as a salt.

Biological target: T1, mushroom tyrosinase (polyphenol oxidase) Sigma T3824 (Agaricus bisporus, UniProt C7FF04)
T1 construct: purchased Sigma T3824
Assay: Testing of polymer production in enzymatic tyrosinase (polyphenol oxidase) reaction
Assay type: biochemical
Design: key: +++: Reacted within about 1 hour; ++: reacted within about 3 hours; +: reacted within about 24 hours; +/−: inconclusive results; −: no reaction
Experimental: All reactions were carried out in approximately 50 mM potassium phosphate buffer, pH 6.5 with approximately 5 mM substrate and mushroom tyrosinase (polyphenol oxidase) Sigma T3824 in an amount of 100 to 10,000 units. Reaction volumes varied from 200 μl to 2 ml. In cases where substrates were not completely solubilized, then a saturated solution was used as the limit of solubility. In some cases, a solution of DMSO was used to increase solubility of the substrates. The enzyme was tested and shown to retain activity up to 50% DMSO. The reactions were observed over a 24 hour period for the production of polymers, and the presence and color of polymer and solution was recorded.
The production of polymers in each reaction was visible as a precipitate in the well of a 96 well plate or in the reaction mixture on a glass slide.

[1] = approx. 50 mM potassium phosphate buffer pH 6.5, approx. 5 mM substrate, 100 to 10,000 units enzyme, observed over 24 hours
[2] = as above, marked substrate(s) dissolved in 20% DMSO

T1 sequence (C7FF04 1-392 limits assumed): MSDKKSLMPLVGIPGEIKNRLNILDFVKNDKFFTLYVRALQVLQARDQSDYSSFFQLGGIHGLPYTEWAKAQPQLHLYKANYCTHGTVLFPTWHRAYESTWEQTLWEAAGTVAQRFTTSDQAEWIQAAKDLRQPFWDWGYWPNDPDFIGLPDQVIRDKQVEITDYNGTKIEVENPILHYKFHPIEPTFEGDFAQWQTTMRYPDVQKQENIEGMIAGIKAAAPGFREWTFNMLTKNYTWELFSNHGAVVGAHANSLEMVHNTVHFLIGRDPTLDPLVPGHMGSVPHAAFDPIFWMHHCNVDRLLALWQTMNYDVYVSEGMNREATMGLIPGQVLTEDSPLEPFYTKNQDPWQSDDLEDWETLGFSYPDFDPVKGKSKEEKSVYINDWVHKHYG

Row | Structure (SMILES) | Result (polymer production in tyrosinase reaction) [1] | Result (polymer production in tyrosinase reaction) [2]
1 | CC1=NCCc2c1[nH]c1cc(O)ccc21 [Harmalol HCl dehydrate] |  | −
2 | Oc1ccc2c(c1)[nH]c1ccccc12 [2 Hydroxy carbazole] |  | −
3 | Cl.NCCc1ccccc1 [Beta phenylethylamine HCL] | +/− | 
4 | Oc1ccc(-c2cc(-c3ccc(O)cc3)cc(-c3ccc(O)cc3)c2)cc1 [1,3,5 Tris(4hydroxyphenyl)benzene] |  | + (reacted within about 24 hours)
5 | Oc1ccc2cc(O)ccc2c1 [2,6 dihydroxnaphthalene] | + (reacted within about 24 hours) | 
6 | c1ccc2[nH]ccc2c1 [Indole] | − | 
7 | Cl.NCCc1ccc(O)cc1 [Tyramine HCl] | +++ (Reacted within about 1 hour) | 
8 | NCCc1ccc(O)cc1 [Tyramine] | +++ (Reacted within about 1 hour) | 

Second part, the compound after the results:

Row | Result (polymer production in tyrosinase reaction) [1] | Result (polymer production in tyrosinase reaction) [2] | Structure (SMILES)
9 | ++ (reacted within about 3 hours) |  | CN[C@@H](Cc1ccc(O)cc1)C(=O)O [N-methyl tyrosine]
10 | ++ (reacted within about 3 hours) |  | N[C@@H](Cc1ccc(O)cc1)C(=O)O [Tyrosine]
11 | +++ (Reacted within about 1 hour) |  | Oc1ccc2[nH]ccc2c1 [5-hydroxyindole]
12 | ++ (reacted within about 3 hours) |  | Oc1ccc2cc[nH]c2c1 [6 Hydroxyindole]
